One data set concerns the target T1, Protein phosphatase 1A (Homo sapiens, UniProt P35813).
T1 sequence (P35813 whole entry): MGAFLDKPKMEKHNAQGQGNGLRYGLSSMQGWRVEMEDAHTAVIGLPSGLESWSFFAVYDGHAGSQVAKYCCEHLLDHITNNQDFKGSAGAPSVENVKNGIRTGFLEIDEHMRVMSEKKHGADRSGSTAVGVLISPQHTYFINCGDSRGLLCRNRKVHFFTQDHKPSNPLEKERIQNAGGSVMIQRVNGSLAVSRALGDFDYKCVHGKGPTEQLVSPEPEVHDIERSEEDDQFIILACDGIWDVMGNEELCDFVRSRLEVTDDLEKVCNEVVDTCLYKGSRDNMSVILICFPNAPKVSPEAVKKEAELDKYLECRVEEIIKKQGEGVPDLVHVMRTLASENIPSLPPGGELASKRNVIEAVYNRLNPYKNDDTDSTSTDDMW
As to the kind of experiment: Inhibition of recombinant human PPM1A using pNPP as substrate preincubated for 15 mins followed by substrate addition measured after 20 mins by absorbance based assay.

The nature of data set [1]: Toxicity in BALB/c mouse assessed as increase in brain weight at higher concentration administered intraperitoneally daily for 14 days. Format: tissue-based. Conditions: in vivo, ip, 336 h, time 14 day.
Data set [2] can be described thus: Toxicity in BALB/c mouse assessed as change in spleen weight at 12.5 to 100 mg/kg, ip administered daily for 14 days. Conditions: in vivo, 336 h, dose 12.5-100 mg/kg, time 14 day. Format: organism-based.
Data set [3] deals with Mycobacterium tuberculosis. As to the kind of experiment: Inhibition of Mycobacterium tuberculosis mc2 6206 burden in lung of BALB/c mouse infected with at 12.5 to 50 mg/kg, ip administered daily for 8 days. The format is functional, organism-based. Conditions: dose 12.5-50 mg/kg, time 8.0 day.
Data set [4] in a line: Half life in ICR mouse at 10 mg/kg, po measured for 24 hrs. Format: ADME, organism-based. Conditions: in vivo.
Data set [5] in a line: Toxicity in BALB/c mouse assessed as increase in irritability at 100 mg/kg, ip administered daily for 14 days. The settings on record: in vivo, 336 h, time 14 day. The format is organism-based.
Data set [6] in a line: Toxicity in BALB/c mouse assessed as change in liver weight at 12.5 to 100 mg/kg, ip administered daily for 14 days. Format: organism-based. The settings on record: in vivo, 336 h, dose 12.5-100 mg/kg, time 14 day.
Data set [7] is described as follows: Toxicity in BALB/c mouse infected with Mycobacterium tuberculosis mc2 6206 assessed as body weight loss at 12.5 to 50 mg/kg, ip administered daily for 8 days. Format: organism-based. The settings on record: in vivo, 192 h, dose 12.5-50 mg/kg, time 8 day.
Data set [8] is described as follows: Tmax in ICR mouse at 10 mg/kg, po measured for 24 hrs. The format is ADME, organism-based. Conditions: in vivo.
For data set [9], the system named is THP-1. Description: Induction of DNA damage in human THP-1 monocytes assessed as increase in gamma-H2AX at 0.1 to 10 uM incubated for 24 hrs by Western blot analysis. The settings on record: thp-1, 24 h, dose 0.1-10 µM. Format: toxicity, cell-based. On the technique in general: Immunoblotting shows a protein as a band on a membrane.
The subject of data set [10] is THP-1. As to the kind of experiment: Induction of DNA damage in human THP-1 macrophages assessed as increase in gamma-H2AX at 0.1 to 10 uM incubated for 24 hrs by Western blot analysis. The settings on record: thp-1, 24 h, dose 0.1-10 µM. The format is toxicity, cell-based.
Data set [11] is described as follows: AUClast in ICR mouse at 10 mg/kg, po measured for 24 hrs. Format: ADME, organism-based. The settings on record: in vivo.
Data set [12] can be described thus: AUClast in ICR mouse at 2 mg/kg, iv measured for 24 hrs. Conditions: in vivo. Format: ADME, organism-based.
For data set [13], the system named is THP-1. Description: Induction of autophagy in human THP-1 macrophages assessed as increase in lipidated LC3-II level at 0.25 to 8 uM incubated for 24 hrs in presence of bafilomycin by Western blot analysis. Format: functional, cell-based. The settings on record: dose 0.25-8 µM.
Data set [14] concerns Mycobacterium tuberculosis. As to the kind of experiment: Anti-mycobacterial activity against Mycobacterium tuberculosis mc2 6206 assessed as bacterial growth inhibition at 20 uM incubated for 5 days by resazurin dye based assay. Conditions: time 5.0 day. The format is functional, organism-based. Background: Alamar Blue is a resazurin reagent that responds to reducing activity.

Data set [15] is described as follows: Clearance in ICR mouse at 2 mg/kg, iv measured for 24 hrs. The format is ADME, organism-based. Conditions: in vivo.
A short description of data set [16]: Toxicity in BALB/c mouse assessed as change in lung weight at 12.5 to 100 mg/kg, ip administered daily for 14 days. Format: organism-based. Conditions: in vivo, 336 h, dose 12.5-100 mg/kg, time 14 day.
Data set [17] in a line: Oral bioavailability in ICR mouse at 10 mg/kg measured for 24 hrs. Format: ADME, organism-based. The settings on record: in vivo.
Data set [18] can be described thus: Toxicity in BALB/c mouse infected with Mycobacterium tuberculosis mc2 6206 assessed as visible toxic signs at 12.5 to 50 mg/kg, ip administered daily for 8 days. Format: organism-based. The settings on record: in vivo, 192 h, dose 12.5-50 mg/kg, time 8 day.
Data set [19] is described as follows: Toxicity in BALB/c mouse assessed as change in kidney weight at 12.5 to 100 mg/kg, ip administered daily for 14 days. The format is organism-based. Conditions: in vivo, 336 h, dose 12.5-100 mg/kg, time 14 day.
Data set [20] can be described thus: AUC (infinity) in ICR mouse at 10 mg/kg, po measured for 24 hrs. The format is ADME, organism-based. The settings on record: in vivo.
Data set [21] in a line: Toxicity in BALB/c mouse assessed as increase in stress level at 100 mg/kg, ip administered daily for 14 days. Conditions: in vivo, 336 h, time 14 day. Format: organism-based.
Data set [22] can be described thus: AUC (infinity) in ICR mouse at 2 mg/kg, iv measured for 24 hrs. The format is ADME, organism-based. The settings on record: in vivo.
The nature of data set [23]: Cytotoxicity against human THP-1 cells by resazurin dye based assay. Format: toxicity, cell-based.
Data set [24] relates to THP-1. Description: Induction of autophagy in human THP-1 macrophages assessed as increase in p62 phosphorylation at S403 incubated for 24 hrs in presence of bafilomycin by Western blot analysis. The format is functional, cell-based. The settings on record: dose 0.25-8 µM.
The subject of data set [25] is Mycobacterium tuberculosis. Description: Anti-mycobacterial activity against Mycobacterium tuberculosis mc2 6206 infected in BALB/c mouse assessed as reduction in bacterial burden in spleen administered intraperitoneally daily for 8 days. Format: functional, organism-based. The settings on record: dose 12.5-50 mg/kg, route ip, time 8.0 day.
The nature of data set [26]: Half life in ICR mouse at 2 mg/kg, iv measured for 24 hrs. Format: ADME, organism-based. The settings on record: in vivo.
Data set [27] in a line: Toxicity in BALB/c mouse assessed as visible abnormality at 12.5 to 50 mg/kg, ip administered daily for 14 days. The format is organism-based. The settings on record: in vivo, 336 h, dose 12.5-50 mg/kg, time 14 day.
In data set [28] the test system is THP-1. Description: Cytotoxicity against human THP-1 monocytes assessed as cell viability at 0.1 to 10 uM incubated for 24 hrs by flow cytometry. The format is toxicity, cell-based. The settings on record: thp-1, 24 h, dose 0.1-10 µM. (A flow cytometer gives signals particle by particle.)
A short description of data set [29]: Toxicity in BALB/c mouse assessed as body weight change at 12.5 to 100 mg/kg, ip administered daily for 14 days. Format: organism-based. The settings on record: in vivo, 336 h, dose 12.5-100 mg/kg, time 14 day.
A short description of data set [30]: Cytotoxicity against human Caco-2 cells by resazurin dye based assay. Format: toxicity, cell-based.
Data set [31] in a line: Cmax in ICR mouse at 10 mg/kg, po measured for 24 hrs. The format is ADME, organism-based. The settings on record: in vivo.
Data set [32] has as its system THP-1. Description: Cytotoxicity against human THP-1 macrophages assessed as cell viability at 0.1 to 10 uM incubated for 24 hrs by flow cytometry. Conditions: thp-1, 24 h, dose 0.1-10 µM. The format is toxicity, cell-based.
Another data set has as its system dsDNA. Description: Binding affinity to dsDNA (unknown origin) assessed as reduction in fluorescence intensity at 5 uM relative to control. The format is nucleic-acid assay. More on the design: scale not given: the % may be the effect or the level left.

Calls of active or inactive are those of the source. The rule behind the calls is not given here.

In the case of `OCC[n+]1cc2ccccc2c2cc(F)ccc21`, the half-maximal inhibitory concentration (IC50) (commonly the concentration at which inhibition is half-maximal) on Protein phosphatase 1A was greater than 20 µM.

On to `COc1ccc2c(c1)c[n+](C(C)CO)c1ccc(F)cc21` (stereo not given), for which the IC50 at Protein phosphatase 1A was greater than 10 µM.

Turning to `CCOc1ccc2c(c1)c[n+](CCO)c1ccc(F)cc21.[Br-]`, the Activity result in data set [1] is on record as “Toxic”; in data set [2] it was “Non-Toxic”; in data set [5] it was “Toxic”; in data set [6], “Non-Toxic”; in data set [7], “Non-Toxic”; in the data set on THP-1 [9], “Non-Toxic”. Moreover, the Activity result with THP-1 [10] is “Non-Toxic”; in data set [16] it was “Non-Toxic”; in data set [18] it was “Non-Toxic”; in data set [19], “Non-Toxic”; in [21] it was “Toxic”; with THP-1 [24] it was “Dose-Dependent Effect”. The Activity entry is “Dose-Dependent Effect” in data set [25]; “Non-Toxic” in [27]; “Non-Toxic” with THP-1 [28]; “Non-Toxic” in data set [29]; “Non-Toxic” with THP-1 [32]; 10% with dsDNA. Moreover, the inhibition entry in [3] and in data set [14] was “inactive” throughout. Also, the results for the half-life in data set [4] and in data set [26] were 46.3 min and 38 min, respectively. Moreover, the time to peak (Tmax) (usually the time at which the peak concentration occurs) in data set [8] is 15 min. Moreover, the IC50 at Protein phosphatase 1A is 0.18 µM. The Ki (usually the equilibrium dissociation constant of an inhibitor or competing ligand from its target) on Protein phosphatase 1A was found to be 0.59 µM. Also, the AUC(0-t) (as a rule, the area under the concentration-time curve up to a stated or last time point) at 24 h stood at 759 ng·h/mL in data set [11] and 206 ng·h/mL in data set [12]. Also, the outcome with THP-1 [13] was Active. Further, the clearance (as a rule, the rate of elimination divided by the concentration) in data set [15] came out at 170 mL/min/kg. Also, in data set [17], the bioavailability (in general, the share of a dose that reaches the circulation, judged against a reference dose that is usually intravenous) is 73.7%. For the same compound, the values for the AUC(0-inf) in [20] and in [22] were 761 ng·h/mL and 208 ng·h/mL, respectively. Besides, the CC50 (in general, the concentration at which the toxic effect on the cells reaches its halfway point) in data set [23] is 138 µM; in data set [30], greater than 200 µM. The Cmax (as a rule, the maximum level reached in the sampled fluid or tissue) in data set [31] came to 908 ng/mL.

`COc1ccc2c(c1)c[n+](CCCO)c1ccc(F)cc21`: the IC50 on Protein phosphatase 1A was greater than 10 µM.

Consider `COc1ccc2c(c1)c[n+](CCCCO)c1ccc(F)cc21`, for which the IC50 at Protein phosphatase 1A is greater than 20 µM.

With `COc1ccc2c(c1)c[n+](CCO)c1cc(F)ccc21`, the IC50 at Protein phosphatase 1A was greater than 20 µM.

As to `COc1ccc(-c2cc3c(cc2OC)c[n+](CCO)c2ccc(F)cc32)cc1`, the concentration for half-maximal inhibition (IC50) at Protein phosphatase 1A came out at 0.29 µM. Also, the cytotoxic concentration (CC50) in data set [23] was 37.2 µM; in [30], 74.6 µM.

Turning to `COc1cc2c[n+](CCO)c3ccc(F)cc3c2cc1-c1ccc(NC(=O)OC(C)(C)C)cc1`, the IC50 on Protein phosphatase 1A was greater than 20 µM.

With `COc1ccc2c(c1)c[n+](CCO)c1ccccc21`, at Protein phosphatase 1A, the IC50 is greater than 20 µM.

As to `OCC[n+]1cc2cc(F)ccc2c2cc(F)ccc21`, at Protein phosphatase 1A, the IC50 is greater than 20 µM.

As to `COC(=O)c1cccc(-c2cc3c(cc2OC)c[n+](CCO)c2ccc(F)cc32)c1`, on Protein phosphatase 1A, the IC50 was greater than 20 µM.

On to `CC(C)COc1ccc2c(c1)c[n+](CCO)c1ccc(F)cc21`, for which the IC50 on Protein phosphatase 1A is greater than 20 µM.

For `CC(C)Oc1ccc2c(c1)c[n+](CCO)c1ccc(F)cc21`, the concentration for half-maximal inhibition (IC50) at Protein phosphatase 1A is 3.72 µM.

`COc1cc2c[n+](CCO)c3ccc(F)cc3c2cc1C1CC1`: on Protein phosphatase 1A, the IC50 was greater than 20 µM.

Take `COc1cc2c[n+](CCO)c3ccc(F)cc3c2cc1I`: the 50% inhibitory concentration (IC50) at Protein phosphatase 1A is greater than 20 µM.

`COc1ccc2c(c1)c[n+](NCCO)c1ccc(F)cc21`: on Protein phosphatase 1A, the IC50 was greater than 10 µM.

Regarding `COc1ccc2cc[n+](CCO)cc2c1`, the IC50 on Protein phosphatase 1A is greater than 20 µM.

Regarding `OCC[n+]1cccc2cc(F)ccc21`, the IC50 at Protein phosphatase 1A is greater than 20 µM.

Regarding `CCOc1ccc2c(c1)c[n+](CCO)c1ccc(OC)cc21`, the IC50 at Protein phosphatase 1A was greater than 20 µM.

Values taken from ChEMBL document CHEMBL5523733, “Small Molecule Targeting PPM1A Activates Autophagy for Mycobacterium tuberculosis Host-Directed Therapy” (J Med Chem, 2024).
